Source: article PMC3641071, “Pharmacokinetics and Efficacy of PEGylated Liposomal Doxorubicin in an Intracranial Model of Breast Cancer” (PLoS ONE, 2013)
Where two headings read alike, the source gives them in different places.

Columns and labels:
[1] = system: intracranial MDA-MB-231-BR human triple-negative breast cancer xenografts; test: Efficacy study: median survival in intracranial model of breast cancer; type: in vivo, Foxn1nu/nu mice; conditions: single agent, control 26 (25-28)
Description: Therapeutic studies and assessment for response were performed with the assistance of the Mouse Phase I Unit (MP1U). Female, Foxn1^nu/nu mice, approximately 20 grams and aged 8 weeks of age were bred in-house from animals purchased from Charles River Laboratories International, Inc. (Wilmington, MA; Stock #490) and were used for all studies. […] Cells were stereotactically-injected into the right caudate nucleus of the basal ganglia using a 27 gauge needle (from Bregma a:1.0mm, l:-2.0 mm, d:-4.0 mm) which remained in place for a period of 2 minutes (min) to minimize reflux through the needle track.
The Kaplan-Meier method and Log-rank tests were used to evaluate and compare overall survival among treatment groups. Unadjusted p-values are reported. For bioluminescence imaging, fold changes were calculated relative to the start date of treatment. […] For every time point where at least two animals were alive in the treatment group, the median level and interquartile range (25th–75th percentile) for bioluminescence imaging were calculated.

[2] = system: intracranial MDA-MB-231-BR luciferase-expressing tumors; test: Bioluminescence imaging of intracranial tumors; type: in vivo, Foxn1nu/nu mice
Description: All animals were anesthetized via inhalation with 2% vaporized isoflurane during the imaging process. Approximately 15 min prior to imaging, all inoculated mice received an intraperitoneal (IP) injection of D-Luciferin dissolved in PBS (150 mg/kg; Caliper Life Sciences, Hopkinton, MA). To confirm the presence or absence of intracranial tumor, mice were imaged using the IVIS Lumina camera (Caliper Life Sciences, Hopkinton, MA). Images were analyzed using Living Image 4.0 Software (Caliper Life Sciences, Hopkinton, MA). All values were recorded as photons/second and were corrected for the presence of background signal.
Treatment was ongoing until clinical symptoms necessitated sacrifice. […] Mice were weighed a minimum of three times/weekly and were monitored by optical imaging weekly until clinical symptoms (i.e. decreased response to stimuli, neurologic dysfunction, weight loss of 20% and/or a Body Composition Score of 2 or less) necessitated sacrifice.
The Kaplan-Meier method and Log-rank tests were used to evaluate and compare overall survival among treatment groups. […] For bioluminescence imaging, fold changes were calculated relative to the start date of treatment. If present, negative imaging values (due to correction for background) were recorded and set to zero. […]

[3] = system: MDA-MB-231-BR cells; test: Cell viability (MTS) assay, single agent and combination treatments; type: cell-based; conditions: Homo sapiens, read-out: IC50 (50% reduction in MTS dye conversion), 72 hours, single agent
Description: A mitochondrial dye conversion assay (Cell Titer 96® Aqueous One Solution Cell Proliferation Assay; Promega Corp., Madison, WI) was used to measure cell viability after treatment. This assay was conducted according to manufacturer's instructions, with modifications. […] Cell counting was performed with an automated cell counter. Cells were allowed to adhere overnight, and media was replaced with fresh media containing a range of drug doses. After the specified treatment period, 20 µl of tetrazolium compound inner salt (MTS) containing an electron coupling reagent, phenazine ethosulfate (PES) was added in each well and incubated at 37°C for 1 hour (h). The MTS absorbance was measured spectrophotometrically at 490 nm (minus background absorbance). All cytotoxic experiments were done in triplicate.
Drug combination interactions were analyzed using methods developed by Chou and Talalay.
CalcuSyn (BioSoft, Cambridge, UK) was used to estimate the IC50 for each drug and to determine the combination index, which is a measurement of the type of drug interactions. A combination index (CI) of 1 indicates an additive response, <1 indicates a synergistic response, and >1 indicates an antagonistic response.

[4] = system: formation of PAR in MDA-MB-231-BR cellular extracts; test: PAR levels in cellular extracts (HT PARP in vivo Pharmacodynamic Assay II); type: cell-based, human; conditions: data not shown
Description: Doxorubicin (NonL-doxo) and PEGylated liposomal doxorubicin (PLD, Doxil®) were both obtained from the University of North Carolina (UNC) Hospitals Pharmacy (Chapel Hill, NC). The poly-ADP-ribose polymerase (PARP) inhibitor, ABT-888, was synthesized by the Chemistry Center for Integrative Chemical Biology and Drug Discovery at UNC (Dr. S. Frye). ABT-888 was dissolved in PBS (phosphate-buffered saline, Life Technologies, Grand Island, NY). The molecular weight of pure ABT-888 is 244.29 g/mol, while the molecular weight of the salt form (which includes 2 HCl molecules) is 317.21 g/mol. All calculations were performed using the molecular weight of the salt form of ABT-888. The ability of ABT-888 to inhibit the formation of PAR was confirmed by measuring PAR levels in MDA-MB-231-BR cellular extracts using HT PARP in vivo Pharmacodynamic Assay II (Trevigen, Gaitherburg, MD, data not shown).

[5] = Pharmacokinetic study: sum total doxorubicin in plasma, brain tumor and brain by HPLC-FL; type: in vivo; conditions: 6 mg/kg IV x1; for AUC(0-inf): read-out: AUC0-∞ of sum total doxorubicin
Description: Group 1 (n = 23) received NonL-doxo administered over 10–15 seconds at 6 mg/kg IV ×1 via tail vein.
Approximately 1 mL of blood was collected via terminal cardiac puncture following deep anesthesia (ketamine 100 mg/kg IP ×1 and Domitor® 1 mg/kg IP ×1) using sodium heparin as an anticoagulant and centrifuged at 1,500 g for 5 minutes to collect plasma. Brain tumor, peri-tumoral brain and normal (contralateral, non-tumor) brain were collected from each mouse. Plasma, tumor, and tissues were placed in cryopreservation vials and preserved by snap freezing using liquid nitrogen. All samples were stored at −80°C until analysis.
Total tissue and tumor weight was recorded at time of collection. Whole tissue and tumors were snap frozen in liquid nitrogen and stored at −80°C until homogenized. To form tissue and tumor homogenates, the intact tissues and tumors were thawed and sectioned. The sections were weighed and diluted in a 1:3 ratio with phosphate buffered saline (PBS) solution. Finally, these mixtures were homogenized by placing zirconium oxide beads (15 small and 2 large; Omni International Inc, Kennesaw, GA) into 2 mL tubes at […] using a Precellys 24 homogenizer (Omni International Inc, Kennesaw, GA) twice for 15 sec each with a 5 sec wait between each run.
Samples were further processed for the analytical studies using protein precipitation with acetonitrile. An 800 µL of extraction solution containing internal standard (acetonitrile with 100 ng/mL daunorubicin) was added to 200 µL of plasma, tumor or tissue homogenate into a 2 mL microcentrifuge tube. The samples were vortexed for 10 min and centrifuged at 10,000×g for 10 min at 4°C. […] The samples were then vortexed, transferred into auto-sampler vials and analyzed by high-performance liquid chromatography (HPLC) using fluorescence (FL) detection (excitation wavelength: 490 nm/ emission wavelength: 590 nm). The HPLC-FL method to measure sum total (encapsulated and released) doxorubicin in plasma, tumor, and tissues was modified from previous studies, [23], [24].
The area under the concentration versus time curve from 0 to ∞ (AUC0–∞) was calculated using the linear up/log down rule. The plasma volume of distribution (Vd), clearance (CL), and half-life (t1/2) were calculated using standard equations. The maximum concentration (Cmax) and time of Cmax (tmax) were determined by visual inspection of the concentration versus time data.

[6] = female, athymic nude (nu/nu), mouse, brain tumor
[7] = female, athymic nude (nu/nu), mouse, normal brain
[8] = female, athymic nude (nu/nu), mouse, peri-tumoral brain
[9] = female, athymic nude (nu/nu), mouse, plasma

## C[C@]1(c2nc3c(C(N)=O)cccc3[nH]2)CCCN1 [ABT-888]
[1]; ABT-888 25 mg/kg/day oral gavage, 25 mg/kg/day
  Median Survival and 95% CI: 27 (24 – 31) days
[2]; ABT-888 25 mg/kg/day OG, 4 weeks post-treatment, control 87.8 at 3 weeks
  highest median fold change from baseline in bioluminescence: 41.8
[3]
  IC50: 277 µM
[4]
  ability to inhibit the formation of PAR: confirmed

## COc1cccc2c1C(=O)c1c(O)c3c(c(O)c1C2=O)C[C@@](O)(C(=O)CO)C[C@@H]3O[C@H]1C[C@H](N)[C@H](O)[C@H](C)O1 [NonL-doxo, Doxorubicin]
[5]; brain tumor
  time after which sum total doxorubicin was undetectable: 24 h
[5]; [6]
  Cmax: 570 ng/mL
  Tmax: 6 h
  AUC(0-inf): 12100 ng·h/mL
[5]; female, athymic nude (nu/nu), mouse, normal (contralateral, non-tumor) brain
  AUC(0-inf): 326 ng·h/mL
[5]; [7]
  Cmax: 92 ng/mL
  Tmax: 1 h
[5]; [8]
  Cmax: 32 ng/mL
  Tmax: 3 h
  AUC(0-inf): 283 ng·h/mL
[5]; [9]
  Cmax: 831 ng/mL
  Tmax: 0.083 h
  Vd: 56.2 L/kg
[5]; female, athymic nude (nu/nu), mouse, plasma, noncompartmental
  AUC(0-inf): 1540 ng·h/mL
[5]; female, athymic nude (nu/nu), mouse, plasma, read-out: CL of sum total doxorubicin (converted)
  clearance: 64.7 mL/min/kg
[5]; female, athymic nude (nu/nu), mouse, plasma, read-out: t1/2 of sum total doxorubicin (converted)
  half-life: 10 h
[5]; normal (contralateral, non-tumor) brain
  time after which sum total doxorubicin was undetectable: 3 h
[5]; peri-tumoral brain
  time after which sum total doxorubicin was undetectable: 6 h
[5]; plasma
  time after which sum total doxorubicin was undetectable: 24 h
[1]; 6 mg/kg IV weekly, from intracranial cell injection
  Median Survival and 95% CI: 23.5 (18 – 28) days
[2]; 6 mg/kg IV weekly single agent, 3 weeks post-treatment
  highest median fold-change in bioluminescence: 4.6
[3]
  IC50: 0.242 µM
